Residue numbers refer to the chain shown, from its start. Entries after “also recorded” stand apart in the source; their conditions may differ.
What was measured:
[1] = target: T1, OSBP1(M446W) (Homo sapiens, UniProt P22059, M446W); assay: [3H]-25-OHC binding, OSBP1(M446W) mutant; conditions: for binding affinity for OSBP1(M446W) compared to wt OSBP1-myc-his: [3H]-25-OHC competition binding
T1 construct: made in house; host or cells: HEK-293T (transient transfection; S100 lysate, not purified)
T1 sequence (P22059 1-807 M446W): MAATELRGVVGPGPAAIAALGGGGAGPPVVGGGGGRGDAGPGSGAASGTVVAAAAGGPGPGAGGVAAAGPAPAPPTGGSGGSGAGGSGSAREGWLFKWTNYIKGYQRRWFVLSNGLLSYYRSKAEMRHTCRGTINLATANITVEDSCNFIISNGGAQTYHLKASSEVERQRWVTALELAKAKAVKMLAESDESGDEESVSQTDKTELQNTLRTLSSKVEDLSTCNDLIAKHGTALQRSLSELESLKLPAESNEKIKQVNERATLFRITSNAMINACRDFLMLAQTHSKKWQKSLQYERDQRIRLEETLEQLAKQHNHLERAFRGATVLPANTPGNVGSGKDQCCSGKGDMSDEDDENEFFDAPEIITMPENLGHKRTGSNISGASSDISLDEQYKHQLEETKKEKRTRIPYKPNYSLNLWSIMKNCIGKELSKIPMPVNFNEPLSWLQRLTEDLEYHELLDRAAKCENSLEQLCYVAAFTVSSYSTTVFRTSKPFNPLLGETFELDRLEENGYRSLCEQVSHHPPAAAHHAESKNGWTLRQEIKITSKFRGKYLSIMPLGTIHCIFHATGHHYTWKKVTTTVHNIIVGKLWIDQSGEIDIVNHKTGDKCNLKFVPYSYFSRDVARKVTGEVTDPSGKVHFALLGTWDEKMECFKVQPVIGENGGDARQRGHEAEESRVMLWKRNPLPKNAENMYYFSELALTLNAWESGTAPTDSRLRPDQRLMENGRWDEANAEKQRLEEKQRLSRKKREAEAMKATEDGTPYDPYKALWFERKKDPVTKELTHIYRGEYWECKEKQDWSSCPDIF
Procedure: (§1) [^3H]-25-Hydroxycholesterol charcoal-dextran binding assay.
The binding affinity of 1, 2 and 4a to the OSBP1(M446W) and OSBP1(V582M) mutants were then determined using [^3H]-25-OHC competition binding. […] Within error limits, the binding affinity of 1, 2 and 4a for these two OSBP1 mutants were unchanged compared to wt OSBP1-myc-his (FIG. 4D).

[2] = target: T2, OSBP1-myc-his (Homo sapiens, UniProt P22059); assay: [3H]-25-hydroxycholesterol charcoal-dextran binding assay with OSBP1-myc-his; conditions: for Ki: competition with 20 nM [3H]-25-OHC, HEK-293T S100 lysate, 4° C., 16 h, read-out: [^3H]-25-OHC K1 (nM) OSBP1-myc-his
T2 construct: made in house; host or cells: HEK-293T (transient transfection; S100 lysate, not purified)
T2 sequence (P22059 1-807): T1 sequence (P22059 1-807 M446W) with W446M
Excerpt: as §1
Methods are described above in the General Methods section.

[3] = target: T3, OSBP1 protein levels in HCT-116 cells (Homo sapiens, UniProt P22059); assay: OSBP1 protein levels by western blotting; format: cell-based; conditions: for reduction in OSBP1 protein levels: 24 h
T3 construct: endogenous in cells; host or cells: HCT-116
T3 sequence (P22059 1-807): T1 sequence (P22059 1-807 M446W) with W446M
Procedure: A possible explanation for this observation was that treatment with 1 and 2 caused a decrease in OSBP1 levels. Treatment of HCT-116 cells with vehicle (DMSO) or 25-OHC (10 μM) had no effect on OSBP1 levels, as assessed by western blotting (FIG. 6A). However, treatment with 1 or 2 induced a dramatic, time-dependent reduction of OSBP1 levels (FIG. 6A). For example, 50 nM of 1 or 10 nM of 2 caused an approximately 75% reduction in OSBP1 protein levels at 24 h in HCT-116 cells (FIG. 6A), with a similar effect recorded in A549 cells. […] OSBP1 levels were determined using both an antibody recognizing the far N-terminus of OSBP1 (FIG. 6) and also an antibody recognizing the C-terminus of OSBP1.
One possible explanation for the reduction in OSBP1 levels upon treatment with 1 and 2 was proteasome-dependent degradation. To determine whether degradation of OSBP1 was proteasome dependent, proteasome inhibitors MG-132 or lactacystin were co-administered with 1 and 2. […] Similar results were obtained in A549 cells.

[4] = system: HeLa cells overexpressing OSBP1(M446W)-myc-his; assay: Overexpression-viability assay, OSBP1(M446W)-myc-his; format: cell-based; conditions: 48 h
Procedure: Overexpression-viability assays with wild-type and mutant OSBP/ORP4L constructs were carried out by transfecting HeLa cells with the appropriate plasmids using Lipofectamine™ LTX with PLUS™ reagent (Invitrogen) as instructed, and after 8 h of transfection, the cells were re-plated for the cell viability assay, performed as described above. Expression levels were evaluated by immunoblotting at the time of dosing.
For additional support that OSBP1 and ORP4L are targets of the ORPphilins, dominant drug-resistant alleles of these proteins were sought. 15 OSBP1 residues inside and outside the region of the protein previously reported to mediate sterol binding were mutated (FIG. 4C). The growth inhibition induced by the ORPphilins was determined in HeLa cells overexpressing either wild-type or mutant OSBP1-myc-his proteins. Expression of wt OSBP1-myc-his and mutant OSBP1-myc-his were nearly equivalent as measured by western blot.
The same mutant caused a 3.9-fold reduction in the antiproliferative activity of OSW-1 (2) (FIG. 4E2) and a 2.7-fold reduction in the activity of schweinfurthin A (4a) (FIG. 4E3). […] The antiproliferative activity of taxol was unaffected by expression of these two OSBP1 mutant proteins (FIGS. 4E4, 4E8).

Compound | binding affinity for OSBP1(M446W) compared to wt OSBP1-myc-his [1] | Ki [2] [nM] | reduction in OSBP1 protein levels ([3]; 50 nM) | reduction in antiproliferative activity at the GI50 level, OSBP1(M446W) vs wt OSBP1 [4] [fold] | binding affinity of 25-OHC for OSBP1(M446W) compared to wt [1] | Kd ([2]; direct binding) [nM] | effect on OSBP1 levels ([3]; 10 μM) | suppression of OSBP1 level reduction caused by 2 ([3]; 25-OHC (10 M or 20 M) with 2 (1 nM)) | reduction in OSBP1 protein levels ([3]; 10 nM) | suppression of OSBP1 level reduction caused by 2 ([3]; 5 μM with 10 nM of 2) | effect on OSBP1 levels, compound alone ([3]; concentration not given)
C[C@@H]1[C@]2(O[C@H]3C=C4[C@@H]5CC[C@H]6Cc7nc8c(nc7C[C@]6(C)[C@H]5C[C@@H](O)[C@]4(C)[C@]31O)C[C@@H]1CC[C@H]3C4=CC[C@@H]5[C@H](C)[C@@]6(OC[C@]45C(=O)C[C@@H]3[C@@]1(C)C8)OC(C)(C)C[C@H]6O)O[C@](C)(CO)C[C@H]2O [cephalostatin 1, Cephalostatin 1] | unchanged | 39 ± 10 | approximately 75% | 18 |  |  |  |  |  |  | 
C[C@H](CCCC(C)(C)O)[C@H]1CC[C@H]2[C@@H]3CC=C4C[C@@H](O)CC[C@]4(C)[C@H]3CC[C@]12C [Compound 25-OHC, 25-hydroxycholesterol] |  |  |  |  | identical to wt | 32 ± 14 | no effect; also recorded: did not reduce | significantly suppressed |  |  | 
COc1ccc(C(=O)O[C@H]2[C@H](O[C@@H]3[C@@H](OC(C)=O)[C@H](O[C@H]4C[C@H]5[C@@H]6CC=C7C[C@@H](O)CC[C@]7(C)[C@H]6CC[C@]5(C)[C@@]4(O)[C@H](C)C(=O)CCC(C)C)OC[C@@H]3O)OC[C@@H](O)[C@@H]2O)cc1 [OSW-1] | unchanged | 26 ± 9 |  | 3.9 |  |  |  |  | approximately 75% |  | 
schweinfurthin A | unchanged | 68 ± 23 |  | 2.7 |  |  |  |  |  | completely suppressed | no effect

— patent publication US9790253B2, “OSW-1 analogs and conjugates, and uses thereof” (priority 2011, dated 2017)
